Tests used:
receptor EGFP-NK2R [1] = target: T1, receptor EGFP-NK2R (UniProt P16610); assay: Reversion of the binding of NKA-Bo to EGFP-NK2R by fluorescence energy transfer; design: % al (max): maximum value observed for the increase in amplitude of the rapid dissociation rate; ns = n; other: 20 nM of NK; % al (at 10 μM); other: compou; fused on or other part: EGFP fused to the receptor as FRET donor; conditions: for % bond reversion (at 10 μM): compound 10 μM; for IC50: read-out: IC50 (μM): concentration of compound for which a 50% reduction is observed in the binding of NKA-Bo, 20 nM of NKA-Bo, EGFP-NK2R receptor
T1 sequence (P16610 1-390): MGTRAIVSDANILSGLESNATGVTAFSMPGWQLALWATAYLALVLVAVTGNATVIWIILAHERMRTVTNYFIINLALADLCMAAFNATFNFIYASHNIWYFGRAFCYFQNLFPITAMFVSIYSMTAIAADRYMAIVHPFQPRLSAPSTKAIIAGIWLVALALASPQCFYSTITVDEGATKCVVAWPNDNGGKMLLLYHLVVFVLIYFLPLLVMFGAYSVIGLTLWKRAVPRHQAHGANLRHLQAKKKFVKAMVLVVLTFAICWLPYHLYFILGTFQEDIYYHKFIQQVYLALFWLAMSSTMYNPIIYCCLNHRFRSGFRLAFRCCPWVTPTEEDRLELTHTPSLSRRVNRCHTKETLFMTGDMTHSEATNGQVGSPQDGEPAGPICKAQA
Text: (§1) The amplitude of each relaxation is then given by the adjustment of the experimental traces.

receptor EGFP-NK2R [2] = target: T1, receptor EGFP-NK2R; assay: Dissociation kinetics of NKA-Bo bound to EGFP-NK2R by fluorescence energy transfer; format: binding; design: % al (max): maximum value observed for the increase in amplitude of the rapid dissociation rate; ns = n; other: 20 nM of NK; % al (at 10 μM); other: compou; fused on or other part: EGFP fused to the receptor as FRET donor; conditions: for % al (at 10 μM): compound 10 μM, T = 22 ± 1 is amplitude of rapid dissociation in the absence of effector; for % al (max): maximum value observed for the increase in amplitude of the rapid dissociation rate / EC50 / EC50 (μM): concentration of compound causing a 50% increase (relative to the maximum value) in the percentage of the amplitude of the rapid dissociation rate: Table 1, ns = not significant; for EC50: read-out: EC50 (μM): concentration of compound causing a 50% increase (relative to the maximum value) in the percentage of the amplitude of the rapid dissociation rate; for EC50 / EC50 (μM): concentration of compound causing a 50% increase (relative to the maximum value) in the percentage of the amplitude of the rapid dissociation rate: dissociation of NKA-Bo from EGFP-NK2R
Method: Dissociation (FIG. 4B): HEK 293 cells expressing the receptor EGFP-NK2R are put into suspension at a concentration of 1,000,000 cells/ml in Hepes physiological buffer (in mM: 137.5 NaCl; 1.25 MgCl2; 1.25 CaCl2; 6 KCl; 5.6 glucose; 10 Hepes; 0.4 NaH2PO4; 1% BSA (w/v); pH 7.4) and arranged in a 1 ml cuvette equipped with a magnetic stirrer on the cuvette holder of a SPEX fluorolog 3 spectrofluorimeter.
as §1

[3] = tested on: cells not expressing the EGFP-NK2R receptor; assay: Calcium response on cells not expressing the receptor; format: cell-based; design: key: ns: not significant; ?: uniterpretable; conditions: Table 1
[4] = in the presence of 50 μM compound, dissociation by non-fluorescent NKA

| SMILES | % bond reversion (at 10 μM) (receptor EGFP-NK2R [1]) [%] | % al (at 10 μM) (receptor EGFP-NK2R [2]) [%] | % al (max): maximum value observed for the increase in amplitude of the rapid dissociation rate (receptor EGFP-NK2R [2]) | EC50 (receptor EGFP-NK2R [2]) [µM] | IC50 (receptor EGFP-NK2R [1]) [µM] | Ca Rep.: ability to evoke a calcium response on cells not expressing the EGFP-NK2R receptor [3] | other results |
| --- | --- | --- | --- | --- | --- | --- | --- |
| N#CCN(Cc1ccc2ccccc2c1)Cc1ccccc1Br [CV1-80, [(2-bromobenzyl)(2-naphthylmethyl)amino]acetonitrile] | 16 | 25 | – | – | – | – | – |
| N#CCN(Cc1ccccc1)Cc1c[nH]c2ccccc12 [CV1-81] | 15 | 22 | – | – | – | – | – |
| N#CCN(Cc1ccccc1)Cc1cccc(Br)c1 [CV1-84, [benzyl(3-bromobenzyl)amino]acetonitrile] | 4 | 25 | – | – | – | – | – |
| N#CCN(Cc1ccccc1)Cc1ccc(Br)cc1 [CV1-85, [benzyl(4-bromobenzyl)amino]acetonitrile] | 4 | 28 | – | – | – | – | – |
| N#CCN(Cc1ccc(Br)cc1)Cc1ccc2ccccc2c1 [CV1-93, [4-bromobenzyl(2-naphthylmethyl)amino]acetonitrile] | 3 | 26 | – | – | – | – | – |
| N#CCN(Cc1ccccc1)Cc1cccc(Cl)c1Cl [CV1-97] | 15 | 34 | – | – | – | – | – |
| N#CCN(Cc1ccccc1)Cc1ccc(Cl)cc1 [CV1-122] | 17 | 31 | – | – | – | – | – |
| N#CCN(Cc1ccccc1)Cc1cccc(Cl)c1 [CV1-123] | 7 | 26 | – | – | – | – | – |
| N#CCN(Cc1ccc(CCc2ccccc2)cc1)Cc1ccc2ccccc2c1 [CV1-135] | 6 | 22 | – | – | – | – | – |
| c1ccc(CNc2ncc(-c3ccccc3)s2)cc1 [F3, Benzyl-(5-phenyl-thiazol-2-yl)-amine] | – | – | 65% | 1 to 5 | – | – | – |
| O=C(CC(Nc1ncc(-c2ccccc2)s1)c1ccccc1)c1ccccc1 (stereo not drawn) [F7, 1,3-Diphenyl-3-(5-phenyl-thiazol-2-ylamino)-propan-1-one] | – | – | ≧60% | ≥ 50 | 90 | ns | – |
| Cc1ccc(NC(CC(=O)c2ccccc2)c2ccccc2)nc1 (stereo not drawn) [F9, 3-(5-Methyl-pyridin-2-ylamino)-1,3-diphenyl-propan-1-one] | – | – | ns | – | > 50 | – | EC50 (μM): concentration of compound causing a 50% increase (relative to the maximum value) in the percentage of the amplitude of the rapid dissociation rate (receptor EGFP-NK2R [2]): ns |
| NCCCC(NC(=O)c1ccccc1)C(=O)NC(Cc1ccccc1)C(N)=O (stereo not drawn) [G6, N-(4-amino-1-(1-carbamoyl-2-phenyl-ethylcarbamoyl)-butyl)-benzamide] | – | – | ns | – | 46 | – | EC50 (μM): concentration of compound causing a 50% increase (relative to the maximum value) in the percentage of the amplitude of the rapid dissociation rate (receptor EGFP-NK2R [2]): ns; effect on the dissociation kinetics of NKA-Bo (receptor EGFP-NK2R [2]; dissociation by non-fluorescent NKA in the presence of compound): does not alter the dissociation rate; amplitude of the rapid dissociation of NKA-Bo (% of total signal) (receptor EGFP-NK2R [2]; [4]): 66%; amplitude of the slow dissociation of NKA-Bo (% of total signal) (receptor EGFP-NK2R [2]; [4]): 33% |
| CCOC(=O)c1ccc(CN(CC#N)Cc2ccc3ccccc3c2)cc1 [G11, 4-[(Cyanomethyl-naphthalen-2-ylmethyl-amino)-methyl]-benzoic acid ethyl ester] | – | – | 70% | 10 to 30 | > 100 | ns | – |
| Nc1ccc(CNCc2ccc3ccccc3c2)cc1 [H3, 4-{[(Naphthalen-2-ylmethyl)-amino]-methyl}-phenylamine] | – | – | ns | – | > 50 | ns | EC50 (μM): concentration of compound causing a 50% increase (relative to the maximum value) in the percentage of the amplitude of the rapid dissociation rate (receptor EGFP-NK2R [2]): ns |
| Clc1ccc(CNCc2ccc3ccccc3c2)cc1 [H6, (4-Chloro-benzyl)-naphthalen-2-ylmethyl-amine] | – | – | 80% | 50 to 80 | > 100 | – | – |
| NC(=O)CN(Cc1ccc2ccccc2c1)c1ccccc1 [H10, 2-(Naphthalen-2-ylmethyl-phenyl-amino)-acetamide] | – | – | >60% | > 50 | ≥ 100 | ns | – |
| N#CCN(Cc1ccc(Cl)cc1)Cc1ccc2ccccc2c1 [NP234 or 801, [(4-chlorobenzyl)(2-naphthylmethyl)amino]acetonitrile] | – | – | 60-70% | 5 to 10 | 110 | ns | – |
| N#CCN(Cc1ccc(Cl)c(Cl)c1)Cc1ccc2ccccc2c1 [NP246 or 803, [(3,4-dichlorobenzyl)(2-naphthylmethyl)amino]acetonitrile] | – | – | 60-70% | 10 to 30 | > 500 | ns | fraction of receptors in the low-affinity state (receptor EGFP-NK2R [2]; at 100 μM of effector, approximately 25% in the absence of effector): ~100% |
| CC(=O)NC1(c2ccccc2)CCN(CC[C@H](CN(C)C(=O)c2ccccc2)c2ccc(Cl)c(Cl)c2)CC1 [SR 48968, reference compound] | – | – | – | – | – | – | ratio of rapid/slow amplitudes of dissociation of NKA-Bo (receptor EGFP-NK2R [2]; each tested concentration of SR 48968): 45/55; relative amplitude of rapid dissociation (0.04 s^-1) of NKA-Bo (receptor EGFP-NK2R [2]; in the presence of 0.2, 1 and 5 nM of SR 48968): 45% |
| N#CCN(Cc1ccc(N)cc1)Cc1cccc2ccccc12 [compound 804, [(4-aminobenzyl)(1-naphthylmethyl)amino]acetonitrile] | – | – | ≧80% | 20 to 30 | > 100 | ns | – |
| COC(=O)CN(Cc1ccccc1)Cc1ccc2ccccc2c1 [compound 806, methyl [benzyl(2-naphtylmethyl)amino]acetate] | – | – | 90% | 10 to 20 | > 200 | ns | – |
| NC(=O)CN(Cc1ccccc1)Cc1ccc2ccccc2c1 [compound 807, 2-[benzyl(2-naphthylmethyl)amino]acetamide] | – | – | ≧90% | – | – | +? | – |
| C#CCN(Cc1ccccc1)Cc1ccc2ccccc2c1 [compound 808, N-benzyl-N-(2-naphthylmethyl)-N-prop-2-ynylamine] | – | – | ≧70% | 20 to 30 | > 200 | – | – |
| N#CCN(Cc1ccccc1)c1ncc(-c2ccccc2)s1 [compound 809, [benzyl(5-phenyl-1,3-thiazol-2-yl)amino]acetonitrile] | – | – | ≧75% | 1 to 20 | > 100 | – | – |

Source: patent US20060194259A1, “Method for isolating an allosteric effector of a receptor” (priority 2002, published 2006)
